Experimental findings from ChEMBL document CHEMBL1201862, “PubChem BioAssay data set” (2004) are described below.

In test [1] the target is Dual specificity protein phosphatase 3 (Homo sapiens, UniProt P51452). The experiment in a line: VHR phosphatase inhibition, dose response, selectivity assay for STEP inhibitor project, biochemical (AID 602374). As to conditions: read-out: IC50_Mean. In kind it is functional.
For test [2], the target named is T1, Carboxy-terminal domain RNA polymerase II polypeptide A small phosphatase 1 (Homo sapiens, UniProt Q9GZU7).
T1 sequence (Q9GZU7 whole entry): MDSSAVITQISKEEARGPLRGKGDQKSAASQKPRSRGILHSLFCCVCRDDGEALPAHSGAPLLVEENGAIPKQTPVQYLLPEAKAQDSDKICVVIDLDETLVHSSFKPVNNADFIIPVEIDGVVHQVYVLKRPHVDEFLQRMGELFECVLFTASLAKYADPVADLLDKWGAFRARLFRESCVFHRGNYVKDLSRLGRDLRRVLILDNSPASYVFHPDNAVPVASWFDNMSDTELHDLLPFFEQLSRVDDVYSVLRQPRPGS
The experiment in a line: CTDSP1 inhibitors, concentration-response, biochemical, absorbance readout, ultra-high-throughput screen actives (AID 540297). Format: functional.

Test [3] deals with T2, Small ubiquitin-related modifier 1 (Homo sapiens, UniProt P63165). The experiment in a line: SUMO1 protein-protein binding blockers, potency – biochemical, FRET, dose response (AID 624383). In kind it is functional. The settings on record: read-out: IC50_Mean.
In test [4] the target is T2, Small ubiquitin-related modifier 1. In words: SUMO1 protein interaction blockers, potency – biochemical, fluorescence polarization, uHTS hits, dose response (AID 624382). The settings on record: read-out: IC50_Mean. In kind it is functional.
In test [5] the target is Tyrosine-protein phosphatase non-receptor type 5 (Homo sapiens, UniProt P54829). The experiment in a line: PTPN5 enzyme inhibition – biochemical, fluorescence intensity, uHTS hits, confirmation (AID 602372). As to conditions: read-out: IC50_Mean. In kind it is functional.
Test [6] addresses Tyrosine-protein phosphatase non-receptor type 11 (Homo sapiens, UniProt Q06124). The experiment in a line: PTPN11 enzyme inhibitors – biochemical, selectivity assay for STEP inhibitor project, dose response (AID 602367). Format: functional. As to conditions: read-out: IC50_Mean.
A short description of test [7]: viability of uninfected HEp-2 cells – cell-based, HTS, cytotoxicity control for RSV inhibitor project, dose response (AID 2410). Format: functional. The settings on record: human respiratory syncytial virus.
Test [8] has as its target T3, Interleukin-8 (Homo sapiens, UniProt P10145). In words: Dose Response confirmation of uHTS small molecule hits for cystic fibrosis induced NFkb Inhibitors in a TNFa-induced IL8 counterscreen. In kind it is functional. As to conditions: read-out: IC50_Mean. In general terms: Counterscreens check selectivity or assay interference.
The target in another test is Paired box protein Pax-8 (Homo sapiens, UniProt Q06710). The experiment in a line: PAX8 transcriptional activity inhibition in RMG-I – RMG-I cells, luciferase, cherry-pick, dose response (AID 687027).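 Also: luciferase reporter driven by Pax8 target thyroperoxidase promoter measured by SteadyGlo luminescence.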 Format: functional, cell-based.
In test [9] the target is T3, Interleukin-8. The experiment in a line: Dose Response confirmation of uHTS small molecule hits for cystic fibrosis induced NFkb Inhibitors in a PAF-induced IL8 counterscreen. In kind it is functional. The settings on record: read-out: IC50_Mean.
The target of the next test is Melanocortin receptor 4 (Homo sapiens, UniProt P32245). In kind it is functional, cell-based.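 Also: Cell-based assay with luminescence read-out, confirmatory dose-response testing for agonist activity of biased ligands at MC4R; human U2OS cells with tagged receptor and beta-arrestin; potency of agonists that increase receptor coupling to beta-arrestin.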
Test [10] concerns Streptococcus sp. 'group A'. The experiment in a line: Streptococcus pyogenes SK(-)GAS viability under kanamycin – luminescence, BacTiterGlo, confirmation, counter-screen for streptokinase expression inhibitor project, dose response (AID 1900). In kind it is functional, organism-based.
Test [11] addresses T4, Polyadenylate-binding protein 1 (Homo sapiens, UniProt P11940). In words: MLLE binding blockers, Cy5 peptide tracer – biochemical, fluorescence polarization, Cy5-PAM2 peptide, secondary, miRNA deadenylation inhibitor project, dose response (AID 602260). In kind it is functional. As to conditions: read-out: IC50_Mean.
Test [12] deals with T5, High affinity choline transporter 1 (Homo sapiens, UniProt Q9GZV3).
T5 sequence (Q9GZV3 whole entry): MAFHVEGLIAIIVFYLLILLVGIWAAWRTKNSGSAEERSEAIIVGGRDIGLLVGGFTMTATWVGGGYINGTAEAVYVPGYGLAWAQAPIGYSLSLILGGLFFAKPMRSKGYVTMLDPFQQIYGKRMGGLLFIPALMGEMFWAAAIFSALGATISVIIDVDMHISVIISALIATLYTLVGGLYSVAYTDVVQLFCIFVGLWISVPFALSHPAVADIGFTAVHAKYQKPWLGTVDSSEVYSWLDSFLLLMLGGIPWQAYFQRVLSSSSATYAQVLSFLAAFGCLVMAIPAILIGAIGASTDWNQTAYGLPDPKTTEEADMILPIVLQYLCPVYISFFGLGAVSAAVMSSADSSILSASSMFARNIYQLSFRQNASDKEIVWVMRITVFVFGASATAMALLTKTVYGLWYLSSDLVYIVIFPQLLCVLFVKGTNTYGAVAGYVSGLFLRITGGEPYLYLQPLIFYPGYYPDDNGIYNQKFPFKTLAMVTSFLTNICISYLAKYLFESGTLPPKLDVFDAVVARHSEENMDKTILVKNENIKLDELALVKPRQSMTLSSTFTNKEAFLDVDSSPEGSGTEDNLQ
The experiment in a line: human choline transporter blockers, potency – cell-based, 10-point CRC, membrane potential dye, dose response (AID 588401).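 Also: membrane potential dye fluorescence of choline-evoked depolarization via CHT.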 Format: functional.

Test [13] deals with T4, Polyadenylate-binding protein 1. In words: MLLE domain peptide-binding blockers, IC50 – biochemical, fluorescence polarization, FITC-PAM2 peptide, dose response (AID 602259). In kind it is functional. As to conditions: read-out: IC50_Mean.
Test [14] deals with T6, Neuropeptide Y receptor type 1 (Homo sapiens, UniProt P25929).
T6 sequence (P25929 whole entry): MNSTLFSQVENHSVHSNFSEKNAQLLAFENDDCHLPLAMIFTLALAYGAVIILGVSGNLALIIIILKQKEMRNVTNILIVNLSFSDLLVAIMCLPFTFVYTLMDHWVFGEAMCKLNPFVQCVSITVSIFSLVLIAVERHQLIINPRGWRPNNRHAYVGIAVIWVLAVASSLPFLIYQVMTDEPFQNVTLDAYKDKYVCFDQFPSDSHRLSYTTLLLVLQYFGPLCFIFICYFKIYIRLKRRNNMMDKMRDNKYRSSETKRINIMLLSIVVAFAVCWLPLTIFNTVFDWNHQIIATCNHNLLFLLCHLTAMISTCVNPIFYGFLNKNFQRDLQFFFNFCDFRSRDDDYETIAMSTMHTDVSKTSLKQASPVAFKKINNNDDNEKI
The experiment in a line: Fluorescence-based counterscreen for agonists of NPY-Y2: cell-based high-throughput dose response assay for agonists of NPY-Y1. Format: functional.

Test [15] can be described thus: fluconazole-exposed Candida albicans growth modulators – fluorescence, retest, confirmation (AID 2467). Format: functional, cell-based.
A further test relates to HEK293. In words: Fluorescence-based counterscreen for potentiators or agonists of NPY-Y2: cell-based high-throughput dose response assay to identify inhibitors of cyclic nucleotide gated ion channel (CNGC) activity. In this assay, the parental HEK293 cell line transfected with a cyclic-nucleotide gated ion channel (CNGC)-based cAMP sensor is used to measure inhibition of isoproterenol-induced CNGC activity by test compound. In kind it is functional. The settings on record: Homo sapiens.

The test system of a further test is Streptococcus. In words: GAS UMAA2166 growth inhibition – luminescence, BacTiterGlo, counter-screen for streptokinase expression inhibitor project, dose response (AID 1915).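 Also: potency for reduction of bacterial viability or growth.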 Format: functional, organism-based.
For test [16], the target named is T5, High affinity choline transporter 1. In words: human choline transporter blockers, potency – cell-based, 5-point CRC, membrane potential dye, dose response (AID 504840). In kind it is functional.
Test [17] is described as follows: NIH-3T3 fibroblast cytotoxicity, dose response, cytotoxicity control, cell-based, fluorescence, Alamar Blue, secondary assay (AID 2327).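 Also: NIH-3T3 mouse fibroblasts cultured with fluconazole at 8 µg/mL.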 Format: functional. For orientation: Resazurin is reduced to fluorescent resorufin, in cell work by metabolically active cells.
For test [18], the target named is T7, Neuropeptide Y receptor type 2 (Homo sapiens, UniProt P49146).
T7 sequence (P49146 whole entry): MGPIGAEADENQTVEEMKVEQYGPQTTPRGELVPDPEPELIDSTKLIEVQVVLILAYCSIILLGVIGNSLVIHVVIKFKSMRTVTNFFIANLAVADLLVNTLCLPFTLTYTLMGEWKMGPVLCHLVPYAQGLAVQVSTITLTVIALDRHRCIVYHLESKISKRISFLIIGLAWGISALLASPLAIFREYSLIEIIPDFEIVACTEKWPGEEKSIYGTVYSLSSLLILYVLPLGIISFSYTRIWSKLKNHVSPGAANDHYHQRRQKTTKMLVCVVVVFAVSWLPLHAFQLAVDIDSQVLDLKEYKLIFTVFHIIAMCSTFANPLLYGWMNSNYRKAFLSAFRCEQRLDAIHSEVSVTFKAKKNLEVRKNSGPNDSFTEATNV
The experiment in a line: Fluorescence-based cell-based high-throughput dose response assay for agonists of NPY-Y2. [Related pubchem assays: 1703 (Screening assay (CNGC inhibitors).), 1359 (Screening assay (NPY-Y2 potentiators or agonists).), 1304 (Screening assay (NPY-Y1 potentiators or agonists).), 1710 (Screening assay (NPY-Y2 agonists).), 1791 (Summary AID.)]. Format: functional.

In another test the target is T8, Streptokinase A (Streptococcus pyogenes serotype M1, UniProt P10520).
T8 sequence (P10520 whole entry): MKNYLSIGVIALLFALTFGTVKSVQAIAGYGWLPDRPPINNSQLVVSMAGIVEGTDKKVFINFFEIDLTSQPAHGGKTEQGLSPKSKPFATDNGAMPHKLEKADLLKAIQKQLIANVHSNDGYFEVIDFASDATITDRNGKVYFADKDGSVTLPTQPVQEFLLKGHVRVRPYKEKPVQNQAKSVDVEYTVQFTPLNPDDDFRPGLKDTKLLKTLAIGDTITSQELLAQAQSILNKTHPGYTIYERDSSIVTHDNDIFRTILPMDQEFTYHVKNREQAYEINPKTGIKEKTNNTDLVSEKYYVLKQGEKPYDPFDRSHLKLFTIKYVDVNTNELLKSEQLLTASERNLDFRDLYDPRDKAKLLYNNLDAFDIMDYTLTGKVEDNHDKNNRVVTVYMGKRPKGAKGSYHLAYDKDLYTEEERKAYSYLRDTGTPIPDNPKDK
The experiment in a line: viability-normalized secreted streptokinase activity reduction – plasminogen activation absorbance, OD405, dose response (AID 1914).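 Also: secreted streptokinase activity via plasminogen activation per viability signal from cell pellet.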 Format: functional, Streptococcus pyogenes M1 GAS.

Test [19] can be described thus: microbe, parasite or virus in culture. Format: functional. The settings on record: Mycobacterium tuberculosis.

The source made the active and inactive calls. A value given as a limit tells only on which side of the number the result lay.

T2 sequence (P63165 whole entry): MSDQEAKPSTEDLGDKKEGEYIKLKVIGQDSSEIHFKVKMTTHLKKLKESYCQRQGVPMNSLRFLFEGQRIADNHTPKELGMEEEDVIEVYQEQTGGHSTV
T3 sequence (P10145 whole entry): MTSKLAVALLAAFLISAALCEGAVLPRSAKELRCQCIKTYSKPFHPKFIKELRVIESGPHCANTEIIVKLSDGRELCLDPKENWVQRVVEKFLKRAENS
T4 sequence (P11940 whole entry): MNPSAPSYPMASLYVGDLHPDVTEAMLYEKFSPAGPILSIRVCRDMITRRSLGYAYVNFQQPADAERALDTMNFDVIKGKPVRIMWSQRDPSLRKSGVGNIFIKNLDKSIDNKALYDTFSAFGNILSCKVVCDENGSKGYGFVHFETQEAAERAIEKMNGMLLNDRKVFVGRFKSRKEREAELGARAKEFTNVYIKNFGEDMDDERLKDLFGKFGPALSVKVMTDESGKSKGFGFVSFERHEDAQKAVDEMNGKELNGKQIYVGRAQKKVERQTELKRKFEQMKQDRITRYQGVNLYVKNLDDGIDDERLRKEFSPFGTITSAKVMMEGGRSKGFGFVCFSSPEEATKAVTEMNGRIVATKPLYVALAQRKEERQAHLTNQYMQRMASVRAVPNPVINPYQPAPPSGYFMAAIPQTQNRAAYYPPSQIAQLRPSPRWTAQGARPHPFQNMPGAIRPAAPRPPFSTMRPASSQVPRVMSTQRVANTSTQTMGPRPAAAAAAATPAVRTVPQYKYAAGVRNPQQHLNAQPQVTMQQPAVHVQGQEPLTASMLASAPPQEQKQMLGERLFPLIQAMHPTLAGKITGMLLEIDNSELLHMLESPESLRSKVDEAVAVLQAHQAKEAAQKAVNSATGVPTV
Chain of Melanocortin receptor 4 (P32245 whole entry): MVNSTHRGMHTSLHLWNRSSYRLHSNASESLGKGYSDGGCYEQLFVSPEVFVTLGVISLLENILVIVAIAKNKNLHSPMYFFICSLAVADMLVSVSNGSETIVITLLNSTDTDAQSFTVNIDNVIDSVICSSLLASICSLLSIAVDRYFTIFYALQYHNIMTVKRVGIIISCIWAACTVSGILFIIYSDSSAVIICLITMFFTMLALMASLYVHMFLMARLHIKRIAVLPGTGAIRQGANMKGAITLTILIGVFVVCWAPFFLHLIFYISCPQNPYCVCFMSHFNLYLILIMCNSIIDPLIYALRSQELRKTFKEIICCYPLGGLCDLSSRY
Chain of Paired box protein Pax-8 (Q06710 whole entry): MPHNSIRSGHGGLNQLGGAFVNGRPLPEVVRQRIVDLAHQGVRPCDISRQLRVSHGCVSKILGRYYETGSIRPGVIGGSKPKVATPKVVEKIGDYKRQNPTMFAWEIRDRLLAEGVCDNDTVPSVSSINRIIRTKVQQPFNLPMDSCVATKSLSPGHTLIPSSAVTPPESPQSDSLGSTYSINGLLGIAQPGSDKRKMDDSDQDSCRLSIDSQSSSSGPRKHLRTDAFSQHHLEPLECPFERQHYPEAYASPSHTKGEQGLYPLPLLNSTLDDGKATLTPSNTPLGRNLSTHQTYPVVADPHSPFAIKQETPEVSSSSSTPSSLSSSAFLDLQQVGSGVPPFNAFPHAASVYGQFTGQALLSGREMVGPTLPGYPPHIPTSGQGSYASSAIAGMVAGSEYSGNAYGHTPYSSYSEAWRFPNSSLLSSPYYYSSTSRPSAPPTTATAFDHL
Chain of Tyrosine-protein phosphatase non-receptor type 5 (P54829 whole entry): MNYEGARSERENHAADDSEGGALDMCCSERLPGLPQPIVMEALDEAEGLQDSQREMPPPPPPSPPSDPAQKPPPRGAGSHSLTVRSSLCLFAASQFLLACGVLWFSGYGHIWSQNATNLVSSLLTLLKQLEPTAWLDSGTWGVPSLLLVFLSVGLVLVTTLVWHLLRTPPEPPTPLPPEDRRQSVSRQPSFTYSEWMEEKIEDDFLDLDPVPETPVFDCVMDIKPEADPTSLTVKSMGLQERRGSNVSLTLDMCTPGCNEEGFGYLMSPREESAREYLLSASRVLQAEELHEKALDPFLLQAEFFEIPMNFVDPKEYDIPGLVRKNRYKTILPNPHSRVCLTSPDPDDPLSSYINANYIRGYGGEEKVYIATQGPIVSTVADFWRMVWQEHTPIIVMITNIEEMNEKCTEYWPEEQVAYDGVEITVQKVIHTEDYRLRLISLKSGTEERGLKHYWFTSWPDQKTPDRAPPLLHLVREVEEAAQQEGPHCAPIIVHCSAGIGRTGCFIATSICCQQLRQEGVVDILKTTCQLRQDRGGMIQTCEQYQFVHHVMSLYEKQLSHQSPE
Chain of Dual specificity protein phosphatase 3 (P51452 whole entry, the tested form may be a part): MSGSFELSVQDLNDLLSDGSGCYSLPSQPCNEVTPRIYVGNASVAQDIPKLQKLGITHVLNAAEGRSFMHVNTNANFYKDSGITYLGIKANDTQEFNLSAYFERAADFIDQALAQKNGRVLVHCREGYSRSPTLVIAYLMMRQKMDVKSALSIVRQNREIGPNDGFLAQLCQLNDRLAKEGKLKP
Chain of Tyrosine-protein phosphatase non-receptor type 11 (Q06124 whole entry): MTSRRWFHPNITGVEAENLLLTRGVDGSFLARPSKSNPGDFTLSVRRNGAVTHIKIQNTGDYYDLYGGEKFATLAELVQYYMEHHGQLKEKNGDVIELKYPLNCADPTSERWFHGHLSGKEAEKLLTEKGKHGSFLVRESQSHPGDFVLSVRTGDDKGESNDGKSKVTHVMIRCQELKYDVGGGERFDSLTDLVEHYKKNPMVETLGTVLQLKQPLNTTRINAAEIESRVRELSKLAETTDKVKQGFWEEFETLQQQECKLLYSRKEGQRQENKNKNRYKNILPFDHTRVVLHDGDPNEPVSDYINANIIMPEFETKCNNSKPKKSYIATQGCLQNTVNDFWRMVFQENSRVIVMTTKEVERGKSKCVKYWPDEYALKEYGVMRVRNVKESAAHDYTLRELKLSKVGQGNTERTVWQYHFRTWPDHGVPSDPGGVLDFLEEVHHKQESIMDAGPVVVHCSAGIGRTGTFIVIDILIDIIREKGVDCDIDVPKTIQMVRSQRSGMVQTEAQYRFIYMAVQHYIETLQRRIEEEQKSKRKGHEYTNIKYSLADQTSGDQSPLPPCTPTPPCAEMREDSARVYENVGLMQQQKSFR

With `O=C1Nc2ccc3sc4ccccc4c3c2C1=O`, the IC50 was 2.49 µM (active) in test [1]; 4.35 µM (active) in test [2]; 8.19 µM (active) in test [3]; > 66.6 µM (inactive) in [4]; 15.2 µM (active) in test [5]; 3.25 µM (active) in [6]. For the same compound, the CC50 in [7] is > 50 µM (active).
As usually defined, the AC50 is the concentration at which the activity in the assay is half-maximal. In the case of `CCOC(=O)Nc1ccc2c(c1)N(C(=O)CCN(CC)CC)c1ccccc1[S+]2[O-]` (centres undefined), the IC50 was 1.01 µM (active) on Interleukin-8 [8] and 1.12 µM (active) on Interleukin-8 [9]. Further, the AC50 at Paired box protein Pax-8 was 7.06 µM (active).
In general, EC50 refers to the concentration needed to bring the measured effect to its halfway point. For `COc1ccc(-c2cnc3c(NC(C)=O)cc(-c4cc(F)ccc4OC)cn23)cc1OC`, on Melanocortin receptor 4, the EC50 is > 89.2 µM (inactive).
As for `N#C/C(=N/Nc1ccc(OC(F)(F)F)cc1)C(N)=S`, the EC50 was 44.9 µM (active) in test [10]; 33.3 µM (not active) in test [14]; 1.67 µM (active) in test [15]; > 35.4 µM (not active) in the test on HEK293; > 150 µM (not active) in the test on Streptococcus; 15 µM (active) in [17]. For the same compound, the EC50 was > 35.4 µM (not active) in test [18] and > 150 µM (not active) on Streptokinase A. For the same compound, the IC50 in test [11] was > 66 µM (inactive); in test [12] it was 0.631 µM (active); in test [13], > 66 µM (inactive); in test [16], 7.16 µM (active). Also, the CC50 in [19] is 8.05 µM (active).
